Data set [1] deals with Rattus norvegicus. Description: Antiinflammatory activity by carrageenan-induced rat paw edema assay after 3 hr at 100 mg/kg concentration administered perorally. Type of data set: functional. As to conditions: route oral. (The carrageenan paw model is a standard test of acute inflammation.)
In data set [2] the test system is Rattus norvegicus. Description: Antiinflammatory activity was evaluated by carrageenan-induced rat paw edema assay after 3 hr at 100 mg/kg concentration administered perorally. In kind it is functional. As to conditions: route oral.
Data set [3] is described as follows: Compound was evaluated for lethal dose in mice when administarted intraperitoneally. Type of data set: toxicity, organism-based. As to conditions: mouse, in vivo, ip.
Data set [4] concerns Rattus norvegicus. Description: Antiinflammatory activity was evaluated by carrageenan-induced rat paw edema assay after 3 hr at 100 mg/kg concentration administered perorally (=p</=0.01). In kind it is functional. As to conditions: route oral.
Data set [5] relates to Mus musculus. Description: Compound was evaluated for analgesia at 100 mg/kg when administered perorally (- = positive mice</=1). Type of data set: functional. As to conditions: route oral.
The test system of data set [6] is Rattus norvegicus. Description: Antiinflammatory activity was evaluated by carrageenan-induced rat paw edema assay after 3 hr at 100 mg/kg concentration administered perorally (=p< 0.05). As to conditions: route oral. Type of data set: functional.
The subject of data set [7] is Rattus norvegicus. Description: Compound was tested for ulcerogenicity when administered perorally. In kind it is functional.
Data set [8] relates to Rattus norvegicus. Description: Compound was tested for anti-pyrexia when administered perorally. Type of data set: functional. As to conditions: po.
In data set [9] the test system is Rattus norvegicus. Description: Compound was tested for analgesia when administered perorally. Type of data set: functional. The settings on record: po.
The test system of data set [10] is Rattus norvegicus. Description: Compound was tested for inhibition of contund edema when administered perorally. As to conditions: po.
Data set [11] deals with Mus musculus. Description: Compound was tested for acute toxicity when administered perorally. In kind it is functional. The settings on record: po.
Data set [12] concerns Rattus norvegicus. Description: Compound was tested for inhibition of carrageenan induced edema when administered perorally. In kind it is functional. The settings on record: po.
Another data set has as its target T1, Cyclooxygenase (Rattus norvegicus, UniProt P35355+Q63921).
T1 sequence (P35355 whole entry): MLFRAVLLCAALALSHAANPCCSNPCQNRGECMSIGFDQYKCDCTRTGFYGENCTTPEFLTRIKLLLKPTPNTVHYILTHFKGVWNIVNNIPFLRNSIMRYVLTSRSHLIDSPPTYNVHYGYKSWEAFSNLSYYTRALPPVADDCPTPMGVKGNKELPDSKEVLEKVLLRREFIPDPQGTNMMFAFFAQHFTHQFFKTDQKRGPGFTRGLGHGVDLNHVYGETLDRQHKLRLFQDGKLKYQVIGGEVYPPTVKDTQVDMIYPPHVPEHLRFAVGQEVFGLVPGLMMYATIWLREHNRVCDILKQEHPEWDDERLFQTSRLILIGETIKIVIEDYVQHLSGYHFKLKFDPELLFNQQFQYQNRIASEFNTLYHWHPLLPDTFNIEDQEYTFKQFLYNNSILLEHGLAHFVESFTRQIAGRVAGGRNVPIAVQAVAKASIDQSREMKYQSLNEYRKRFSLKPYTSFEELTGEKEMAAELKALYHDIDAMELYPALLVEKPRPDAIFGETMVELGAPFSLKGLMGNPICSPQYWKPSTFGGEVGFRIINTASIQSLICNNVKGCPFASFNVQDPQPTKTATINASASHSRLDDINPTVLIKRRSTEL
T1 sequence (Q63921 whole entry): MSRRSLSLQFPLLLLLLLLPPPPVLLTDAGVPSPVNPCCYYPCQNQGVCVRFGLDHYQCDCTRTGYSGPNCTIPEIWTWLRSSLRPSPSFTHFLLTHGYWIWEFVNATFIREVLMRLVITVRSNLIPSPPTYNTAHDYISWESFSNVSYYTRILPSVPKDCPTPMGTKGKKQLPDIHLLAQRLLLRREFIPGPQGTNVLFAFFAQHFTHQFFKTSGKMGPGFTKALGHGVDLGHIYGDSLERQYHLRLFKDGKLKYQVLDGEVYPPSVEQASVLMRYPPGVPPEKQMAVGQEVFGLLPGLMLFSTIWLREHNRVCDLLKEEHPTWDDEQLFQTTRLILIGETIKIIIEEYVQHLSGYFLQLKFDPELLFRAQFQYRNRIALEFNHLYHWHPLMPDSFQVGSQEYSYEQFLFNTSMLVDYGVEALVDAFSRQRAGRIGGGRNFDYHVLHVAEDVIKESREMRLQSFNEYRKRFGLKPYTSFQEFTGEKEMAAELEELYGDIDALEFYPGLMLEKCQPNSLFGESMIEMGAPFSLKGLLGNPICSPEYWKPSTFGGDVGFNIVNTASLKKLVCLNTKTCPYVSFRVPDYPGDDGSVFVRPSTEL
Description: Compound was tested for inhibition of prostaglandin synthetase […]. Type of data set: protein assay.

Data set [13] concerns Rattus norvegicus. Description: Compound was tested for inhibition of scald edema when administered perorally. Type of data set: functional. As to conditions: po.

A word on the inhibition in vivo: it is the relative decrease from the control value, in per cent. For `Cc1ccc(-c2nc3ccccc3n2CC(=O)N2CCCC2)nc1`, in the data set on Rattus norvegicus [1], the inhibition in vivo at 100 mg/kg came to 14%.
Regarding `CCc1ccc(-c2nc3ccccc3n2CC(=O)N2CCN(CCO)CC2)nc1`, the inhibition in vivo at 100 mg/kg in the data set with Rattus norvegicus [1] amounted to 4%.
Regarding `Oc1cccc(-c2nc3ccccc3[nH]2)n1`, the inhibition in vivo at 100 mg/kg with Rattus norvegicus [2] is -7%.
In the case of `Cc1ccc2[nH]c(-c3ccc(C)c(C)n3)nc2c1`, the inhibition in vivo at 100 mg/kg in the data set on Rattus norvegicus [1] is -19%.
As usually defined, the LD50 is the dose at which mortality reaches 50%. As for `CCc1ccc(-c2nc3cc(OC)ccc3[nH]2)nc1`, the LD50 in data set [3] is over 300 mg/kg. Further, the inhibition in vivo at 100 mg/kg with Rattus norvegicus [4] is 58%. The Activity in the data set on Mus musculus [5] worked out at 1.
Consider `Clc1ccc2nc(-c3ccccn3)[nH]c2c1`, for which the inhibition in vivo at 100 mg/kg with Rattus norvegicus [2] was determined as 36%.
On the same count and under the same terms, in the case of `CCCCc1ccc(-c2nc3ccccc3[nH]2)nc1` it was -16%; in that of `OCc1cccc(-c2nc3ccccc3[nH]2)n1`, -13%.
Consider `CCc1ccc(-c2nc3cc(C)ccc3[nH]2)nc1`, for which the inhibition in vivo at 100 mg/kg with Rattus norvegicus [6] came out at 35%.
On to `CCc1ccc(-c2nc3cc([N+](=O)[O-])ccc3[nH]2)nc1`, for which the inhibition in vivo at 100 mg/kg in the data set with Rattus norvegicus [1] is -5%.
As to `Cc1ccc(-c2nc3ccccc3n2CC(=O)N2CCCCC2)nc1`, in the data set on Rattus norvegicus [1], the inhibition in vivo at 100 mg/kg is 2%.
Regarding `Cc1ccc(-c2nc3ccccc3n2CCN(C)C)nc1`, the inhibition in vivo at 100 mg/kg with Rattus norvegicus [1] was 12%.
Consider `Cc1ccnc(-c2nc3ccccc3[nH]2)c1`, for which the inhibition in vivo at 100 mg/kg with Rattus norvegicus [2] was -4%.
Regarding `COC(=O)Cn1c(-c2ccccn2)nc2ccccc21`, the inhibition in vivo at 100 mg/kg in the data set with Rattus norvegicus [1] was -17%.
On to `Cc1ccc2[nH]c(-c3cccc(Cl)n3)nc2c1`, for which, in the data set on Rattus norvegicus [2], the inhibition in vivo at 100 mg/kg was 36%.
`Cc1ccc2[nH]c(-c3cccc(O)n3)nc2c1`: in the data set on Rattus norvegicus [1], the inhibition in vivo at 100 mg/kg was -6%.
As to `CCc1ccc(-c2nc3ccccc3n2-c2ccccc2)nc1`, the inhibition in vivo at 100 mg/kg in the data set with Rattus norvegicus [1] stood at 12%.
On to `Cc1ccc(-c2nc3cc(Cl)ccc3[nH]2)nc1`, for which the inhibition in vivo at 100 mg/kg in the data set with Rattus norvegicus [1] is -5%.
Consider `CCc1cccc(-c2nc3cc(Cl)ccc3[nH]2)n1`, for which the inhibition in vivo at 100 mg/kg in the data set on Rattus norvegicus [1] is 3%.
As to `Cc1ccc2nc(-c3ccccn3)[nH]c2c1`, the inhibition in vivo at 100 mg/kg with Rattus norvegicus [2] is 35%.
Turning to `Cc1ccc(-c2nc3ccccc3n2CC(=O)N2CCN(C)CC2)nc1`, the inhibition in vivo at 100 mg/kg with Rattus norvegicus [1] is 11%.
The same measure, in the same setting: next, `CCc1ccc(-c2nc3cc(O)ccc3[nH]2)nc1`: 25%.
With `CCc1ccc(-c2nc3ccccc3n2CC(=O)N2CCCC2)nc1`, the inhibition in vivo at 100 mg/kg in the data set on Rattus norvegicus [1] is -5%.
As for `COc1cccc(-c2nc3cc(C)ccc3[nH]2)n1`, in the data set with Rattus norvegicus [1], the inhibition in vivo at 100 mg/kg is 32%.
On to `c1ccc(-c2nc3ccccc3[nH]2)nc1`, for which the inhibition in vivo at 100 mg/kg in the data set with Rattus norvegicus [2] worked out at 22%.
By ED50 is commonly meant the dose at which the effect has come halfway, by size or by number of responders. The low end stands for greater potency, the high end for weaker potency. The IC50 is the concentration that inhibits the measured activity by half. In the data set on Rattus norvegicus [7], `CCCCC1C(=O)N(c2ccccc2)N(c2ccccc2)C1=O` [PHENYLBUTAZONE] came in with a UD50 of 142 mg/kg. In the data set with Rattus norvegicus [8], this compound had an ED60 of 44 mg/kg. The same compound returned a 50% effective dose (ED50) with Rattus norvegicus [9] of 280 mg/kg. The ED40 worked out at 200 mg/kg with Rattus norvegicus [10], 100 mg/kg in the data set with Rattus norvegicus [12] and 180 mg/kg in the data set with Rattus norvegicus [13]. Further, the median lethal dose (LD50) with Mus musculus [11] was 616 mg/kg. The inhibition in vivo at 100 mg/kg with Rattus norvegicus [1] came out at 43%. The half-inhibitory concentration (IC50) against Cyclooxygenase is 0.000015 M.
`Cl.O=C(Cn1c(=O)sc2ccc(Cl)cc21)N1CCN(CCO)CC1` [TIARAMIDE HYDROCHLORIDE] returned a UD50 with Rattus norvegicus [7] of 163 mg/kg. Further, in the data set with Rattus norvegicus [8], the ED60 turned out to be 100 mg/kg. In the data set with Rattus norvegicus [9], the 50% effect level (ED50) was put at a dose of 76 mg/kg. Moreover, the ED40 in the data set on Rattus norvegicus [10] was determined as 200 mg/kg; with Rattus norvegicus [12], 160 mg/kg; in the data set on Rattus norvegicus [13], 200 mg/kg. The same compound gave a 50% lethal dose (LD50) with Mus musculus [11] of 203 mg/kg. Further, the inhibition in vivo at 100 mg/kg in the data set on Rattus norvegicus [1] worked out at 31%. Further, on Cyclooxygenase, the 50% inhibitory concentration (IC50) is reported as over 0.0001 M.

For the origin of these results see ChEMBL document CHEMBL1121470, “Synthesis and antiinflammatory activity of some 2-(substituted-pyridinyl)benzimidazoles” (J Med Chem, 1980).
